Read-outs that look alike come from different tables or passages of the source.
Columns and labels:
Type in all cases: cell-based
Conditions in all cases: 48 hours
IL-17FF = IL-17FF production by PHA-stimulated human PBMC (human IL-17F ELI-Pair)
How it was run: (§1)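 PBMC from healthy donors, 1×10^5/well, 2 μg/ml PHA + compound, 48 h. Supernatant cytokine by Luminex bead assay or ELISA as listed. Screen at 10/1/0.1/0.01 μM; IC50 via semilog titration.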

IFN-γ = IFN-γ production by PHA-stimulated human PBMC (OptEIA human IFN-g ELISA)
How it was run: as §1

[1] = system: PBMC from healthy human donors; experiment: T cell proliferation assay (PHA-stimulated human PBMC, BrdU ELISA)
How it was run: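 Proliferation was quantified by BrdU ELISA 48 hours after starting culture of 1×10⁵ human PBMC per well with test compound and 2 μg/ml phytohaemagglutinin. Cells came from healthy donors via Ficoll separation and were kept in RPMI1640 with 10% dialysed heat-inactivated FCS.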

[2] = PHA-stimulated human PBMC, column B, read-out: IC50 (IL-17FF)
[3] = PHA-stimulated human PBMC, column C, read-out: IC50 (IFNγ)
[4] = PHA-stimulated human PBMC, column D, read-out: IC50 (Tcell proliferation)
[5] = human PBMC, 2 μg/ml PHA, read-out: B: IC50 (IL-17FF)
[6] = human PBMC, 2 μg/ml PHA, read-out: C: IC50 (IFNγ)
[7] = human PBMC, 2 μg/ml PHA, read-out: D: IC50 (Tcell proliferation)

SMILES | IC50 (IL-17FF; [2]) | IC50 (IFN-γ; [3]) | IC50 [1, 4] | IC50 (IL-17FF; [5]) | IC50 (IFN-γ; [6]) | IC50 [1, 7]
CN1CCN(C(=O)c2c(-c3c(F)cccc3Cl)noc2-c2cnn(-c3ccccc3F)c2C(F)(F)F)CC1 [Example I-17, (3-(2-chloro-6-fluorophenyl)-5-(1-(2-fluorophenyl)-5-(trifluoromethyl)-1H-pyrazol-4-yl)isoxazol-4-yl)(4-methylpiperazin-1-yl)methanone] | 100 to 1000 nM | 100 to 1000 nM | 1000 to 10000 nM |  |  | 
CCOC(=O)c1c(-c2ccccc2F)noc1-c1cnn(-c2cccc(F)c2)c1C(F)(F)F [Example I-90, ethyl 3-(2-fluorophenyl)-5-(1-(3-fluorophenyl)-5-(trifluoromethyl)-1H-pyrazol-4-yl)isoxazole-4-carboxylate] | 100 to 1000 nM | 10 to 100 nM | 100 to 1000 nM |  |  | 
Cc1nnc(-c2c(-c3c(F)cccc3Cl)noc2-c2cnn(-c3ccccn3)c2C(F)(F)F)s1 [Example B-27, 3-(2-chloro-6-fluorophenyl)-4-(5-methyl-1,3,4-thiadiazol-2-yl)-5-(1-(pyridin-2-yl)-5-(trifluoromethyl)-1H-pyrazol-4-yl)isoxazole] |  |  |  | 10 to 100 nM | 10 to 100 nM | 10 to 100 nM
COC(=O)c1c(-c2c(F)cccc2Cl)noc1-c1cnn(-c2ccc(S(C)(=O)=O)cc2)c1C(F)(F)F [Example I-85, methyl 3-(2-chloro-6-fluorophenyl)-5-(1-(4-(methylsulfonyl)phenyl)-5-(trifluoromethyl)-1H-pyrazol-4-yl)isoxazole-4-carboxylate] | 1000 to 10000 nM | 1000 to 10000 nM | 1000 to 10000 nM |  |  | 
CCOC(=O)c1c(-c2c(Cl)cccc2Cl)noc1-c1cnn(-c2cccc(Cl)c2)c1C(F)(F)F [IB-45, ethyl 5-(1-(3-chlorophenyl)-5-(trifluoromethyl)-1H-pyrazol-4-yl)-3-(2,6-dichlorophenyl)-isoxazole-4-carboxylate] | < 10 nM | < 10 nM | < 10 nM |  |  | 
CCOC(=O)c1c(-c2c(Cl)cncc2Cl)noc1-c1cnn(-c2cccc(Cl)c2)c1C(F)(F)F [IB-7, ethyl 5-(1-(3-chlorophenyl)-5-(trifluoromethyl)-1H-pyrazol-4-yl)-3-(3,5-dichloropyridin-4-yl)isoxazole-4-carboxylate] | 1000 to 10000 nM | 100 to 1000 nM | 1000 to 10000 nM |  |  | 
Cc1nnc(-c2c(-c3c(F)cccc3Cl)noc2-c2cnn(-c3cccc(S(N)(=O)=O)c3)c2C(F)(F)F)s1 [Example B-23, 3-(4-(3-(2-chloro-6-fluorophenyl)-4-(5-methyl-1,3,4-thiadiazol-2-yl)isoxazol-5-yl)-5-(trifluoromethyl)-1H-pyrazol-1-yl)benzenesulfonamide] |  |  |  | 1000 to 10000 nM | 1000 to 10000 nM | 1000 to 10000 nM
Fc1cccc(Cl)c1-c1noc(-c2cnn(-c3cccc(Cl)c3)c2C(F)(F)F)c1Br [Example I-140, 4-bromo-3-(2-chloro-6-fluorophenyl)-5-(1-(3-chlorophenyl)-5-(trifluoromethyl)-1H-pyrazol-4-yl)isoxazole] | < 10 nM | < 10 nM | 10 to 100 nM |  |  | 
Fc1cccc(Cl)c1-c1noc(-c2cnn(-c3cccnc3)c2C(F)(F)F)c1-c1cnco1 [Example B-32, 3-(2-chloro-6-fluorophenyl)-4-(oxazol-5-yl)-5-(1-(pyridin-3-yl)-5-(trifluoromethyl)-1H-pyrazol-4-yl)isoxazole] |  |  |  | 1000 to 10000 nM | 100 to 1000 nM | 1000 to 10000 nM
CON(C)C(=O)c1c(-c2c(F)cccc2Cl)noc1-c1cnn(-c2ccncc2)c1C(F)(F)F [IB-59, 3-(2-chloro-6-fluorophenyl)-N-methoxy-N-methyl-5-(1-(pyridin-4-yl)-5-(trifluoromethyl)-1H-pyrazol-4-yl)isoxazole-4-carboxamide] | 1000 to 10000 nM | 1000 to 10000 nM | 1000 to 10000 nM |  |  | 
COC(=O)c1c(-c2ccccc2F)noc1-c1cnn(-c2cccc(F)c2)c1C(F)(F)F [Example I-92, methyl 3-(2-fluorophenyl)-5-(1-(3-fluorophenyl)-5-(trifluoromethyl)-1H-pyrazol-4-yl)isoxazole-4-carboxylate] | 100 to 1000 nM | 100 to 1000 nM | 100 to 1000 nM |  |  | 
Fc1cccc(Cl)c1-c1noc(-c2cnn(-c3cccc(Cl)c3)c2C(F)(F)F)c1-c1nnn[nH]1 [Example 3, 3-(2-chloro-6-fluorophenyl)-5-(1-(3-chlorophenyl)-5-(trifluoromethyl)-1H-pyrazol-4-yl)-4-(1H-tetrazol-5-yl)isoxazole] |  |  |  | 1000 to 10000 nM | 1000 to 10000 nM | 1000 to 10000 nM
COC(=O)Nc1c(-c2c(F)cccc2Cl)noc1-c1cnn(-c2cccc(F)c2)c1C(F)(F)F [Example I-138, methyl 3-(2-chloro-6-fluorophenyl)-5-[1-(3-fluorophenyl)-5-(trifluoromethyl)-1H-pyrazol-4-yl]isoxazol-4-ylcarbamate] | 100 to 1000 nM | 100 to 1000 nM | 100 to 1000 nM |  |  | 
CNC(=O)c1c(-c2ccccc2Cl)noc1-c1cnn(-c2cccc(Cl)c2)c1C(F)(F)F [IB-63, 3-(2-chlorophenyl)-5-(1-(3-chlorophenyl)-5-(trifluoromethyl)-1H-pyrazol-4-yl)-N-methylisoxazole-4-carboxamide] | 100 to 1000 nM | 100 to 1000 nM | 100 to 1000 nM |  |  | 
NS(=O)(=O)c1cccc(-n2ncc(-c3onc(-c4c(F)cccc4Cl)c3-c3nnco3)c2C(F)(F)F)c1 [Example B-17, 3-(4-(3-(2-chloro-6-fluorophenyl)-4-(1,3,4-oxadiazol-2-yl)isoxazol-5-yl)-5-(trifluoromethyl)-1H-pyrazol-1-yl)benzenesulfonamide] |  |  |  | 1000 to 10000 nM | 1000 to 10000 nM | 1000 to 10000 nM
Fc1cccc(Cl)c1-c1noc(-c2cnn(-c3cccc(Cl)c3)c2C(F)(F)F)c1-c1cnco1 [Example 8, 3-(2-chloro-6-fluorophenyl)-5-(1-(3-chlorophenyl)-5-(trifluoromethyl)-1H-pyrazol-4-yl)-4-(oxazol-5-yl)isoxazole] |  |  |  | < 10 nM | < 10 nM | < 10 nM
O=C(c1c(-c2c(F)cccc2Cl)noc1-c1cnn(-c2ccccc2F)c1C(F)(F)F)N1CCCO1 [IB-52, (3-(2-chloro-6-fluorophenyl)-5-(1-(2-fluorophenyl)-5-(trifluoromethyl)-1H-pyrazol-4-yl)isoxazol-4-yl)(isoxazolidin-2-yl)methanone] | 1000 to 10000 nM | 1000 to 10000 nM | 1000 to 10000 nM |  |  | 
CCOC(=O)c1c(-c2c(Cl)cncc2Cl)noc1-c1cnn(-c2ccccc2F)c1C(F)(F)F [IB-9, ethyl 3-(3,5-dichloropyridin-4-yl)-5-(1-(2-fluorophenyl)-5-(trifluoromethyl)-1H-pyrazol-4-yl)isoxazole-4-carboxylate] | 10 to 100 nM | 10 to 100 nM | 10 to 100 nM |  |  | 
O=C(c1c(-c2c(F)cccc2Cl)noc1-c1cnn(-c2ccccc2Cl)c1C(F)(F)F)N1CCCO1 [IB-49, (3-(2-chloro-6-fluorophenyl)-5-(1-(2-chlorophenyl)-5-(trifluoromethyl)-1H-pyrazol-4-yl)isoxazol-4-yl)(isoxazolidin-2-yl)methanone] | 100 to 1000 nM | 1000 to 10000 nM | 1000 to 10000 nM |  |  | 
CCOC(=O)c1c(-c2c(F)cccc2Cl)noc1-c1cnn(-c2ccccc2[N+](=O)[O-])c1C(F)(F)F [IB-95, 3-(2-chloro-6-fluorophenyl)-5-(1-(2-nitrophenyl)-5-(trifluoromethyl)-1H-pyrazol-4-yl)isoxazole-4-carboxylate] | 10 to 100 nM | 10 to 100 nM | 100 to 1000 nM |  |  | 
COC(=O)c1c(-c2c(F)cccc2Cl)noc1-c1cnn(CC(C)C)c1C(F)(F)F [Example I-28] | 10 to 100 nM | 10 to 100 nM | 100 to 1000 nM |  |  | 
CCOC(=O)c1c(-c2c(Cl)cncc2Cl)noc1-c1cnn(-c2ccncc2)c1C(F)(F)F [IB-10, ethyl 3-(3,5-dichloropyridin-4-yl)-5-(1-(pyridin-4-yl)-5-(trifluoromethyl)-1H-pyrazol-4-yl)isoxazole-4-carboxylate] | 100 to 1000 nM | 100 to 1000 nM | 100 to 1000 nM |  |  | 
CC(C)OC(=O)c1c(-c2c(F)cccc2Cl)noc1-c1cnn(-c2cccnc2)c1C(F)(F)F [IB-61, isopropyl 3-(2-chloro-6-fluorophenyl)-5-(1-(pyridin-3-yl)-5-(trifluoromethyl)-1H-pyrazol-4-yl)isoxazole-4-carboxylate] | 10 to 100 nM | < 10 nM | 10 to 100 nM |  |  | 
CCOC(=O)c1c(-c2onc(-c3c(F)cccc3Cl)c2C(=O)OC)cnn1-c1ccccc1F [Example I-41, methyl 3-(2-chloro-6-phenyl)-5-(5-(ethoxycarbonyl)-1-(2-fluorophenyl)-1H-pyrazol-4-yl)isoxazole-4-carboxylate] | 100 to 1000 nM | 100 to 1000 nM | 100 to 1000 nM |  |  | 
O=C(NCc1ccccc1C(F)(F)F)c1c(-c2c(F)cccc2Cl)noc1-c1cnn(-c2ccccc2F)c1C(F)(F)F [Example I-23, 3-(2-chloro-6-fluorophenyl)-5-(1-(2-fluorophenyl)-5-(trifluoromethyl)-1H-pyrazol-4-yl)-N-(2-(trifluoromethyl)ben-zyl)isoxazole-4-carboxamide] | 1000 to 10000 nM | 100 to 1000 nM | 1000 to 10000 nM |  |  | 
Fc1ccccc1-n1ncc(-c2onc(-c3c(F)cccc3Cl)c2-c2nccs2)c1C(F)(F)F [Example B-30, 3-(2-chloro-6-fluorophenyl)-5-(1-(2-fluorophenyl)-5-(trifluoromethyl)-1H-pyrazol-4-yl)-4-(thiazol-2-yl)isoxazole] |  |  |  | 10 to 100 nM | 10 to 100 nM | 10 to 100 nM

— patent US8354436B2 (4SC Discovery GmbH, priority 2011, dated 2013)
